Several values for one entry are separate records, joined by “and”; a condition that tells them apart may be missing. Equal values may be shown once.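 Grown in 96-well plates, cells were treated for 48 hours with each compound at five concentrations. Insufficient inhibition: endpoint recorded as highest concentration tested. GI50 is the concentration that inhibits growth by half. TGI: total growth inhibition.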
Columns and labels:
Assay in all cases: NCI-60 cell line screen, 48 h
HOP-92 NSCLC = system: HOP-92 NSCLC
HCT-116 colon = system: HCT-116 colon
PC-3 prostate = system: PC-3 prostate
NCI/ADR-RES ovarian = system: NCI/ADR-RES ovarian
SW-620 colon = system: SW-620 colon
SK-MEL-2 melanoma = system: SK-MEL-2 melanoma
RXF 393 renal = system: RXF 393 renal
TK-10 renal = system: TK-10 renal
NCI-H226 lung = system: NCI-H226 lung
MCF7 breast = system: MCF7 breast

Row | SMILES | TGI (HOP-92 NSCLC) | TGI (HCT-116 colon) | TGI (PC-3 prostate) [µM] | TGI (NCI/ADR-RES ovarian) | TGI (SW-620 colon) | TGI (SK-MEL-2 melanoma) | TGI (RXF 393 renal) | TGI (TK-10 renal) [µM] | TGI (NCI-H226 lung) | TGI (MCF7 breast) | GI50 (PC-3 prostate) [µM] | GI50 (NCI/ADR-RES ovarian) [µM] | GI50 (RXF 393 renal) [µM] | GI50 (MCF7 breast) [µM] | GI50 (HOP-92 NSCLC) [µM] | GI50 (SW-620 colon) [µM] | GI50 (SK-MEL-2 melanoma) [µM] | GI50 (TK-10 renal) [µM] | GI50 (NCI-H226 lung) | GI50 (HCT-116 colon) [µM]
1 | O=c1ccc2cc(O)c(O)cc2o1 | > 100 µM | > 100 µM | > 100 | > 100 µM | > 100 µM | > 100 µM | > 100 µM | > 100 | > 100 µM | > 100 µM | – | – | – | – | – | – | – | – | – | –
2 | NC(=O)NN=C(CS)CS | 38.6 µM | > 100 µM | – | 71.9 µM | 60 µM | 45.1 µM | > 74.4 µM | – | – | > 69 µM | – | – | – | – | – | – | – | – | – | –
3 | CN(C)c1ccc(/C=N\NC(=O)CSCC(=O)N/N=C/c2ccc(N(C)C)cc2)cc1 | > 100 µM | > 100 µM | > 100 | > 100 µM | > 100 µM | > 100 µM | 81.5 µM | > 100 | > 100 µM | > 100 µM | – | – | – | – | – | – | – | – | – | –
4 | N#CC(c1ccccc1)c1nc2ccc(=N)cc-2n(O)c1C(C#N)c1ccccc1 (configuration not stated) | – | > 100 µM | – | – | > 100 µM | > 100 µM | > 100 µM | > 100 | > 100 µM | – | – | – | – | – | – | – | – | – | – | –
5 | CC(=O)C(O)N1C(=O)C=CC1=O (configuration not stated) | – | – | – | – | – | – | – | – | – | > 25 µM and 32900 µM | 2470 | 12000 | 13000 | 14200 | – | – | – | – | – | –
6 | O=C1c2c(c3c4ccccc4[nH]c3c3ccc4ccccc4c23)C(=O)N1CCN1CCCCC1 | 38.8 µM | – | 24.7 | 3.31 µM | 4.75 µM | 5.36 µM | 3.01 µM | > 100 | 3.39 µM | 2.34 µM | 1.68 | 0.797 | 1.47 | 0.0388 | 2.67 | 0.663 | 2.25 | 3.38 | 1.23 µM | –
7 | COc1ccc(N2C(=O)C3c4[nH]c5c(C)cccc5c4C4CCC(C(C)(C)C)CC4C3C2=O)cc1 (configuration not stated) | – | > 10 µM | > 10 | > 10 µM | > 10 µM | > 10 µM | > 10 µM | > 10 | > 10 µM | > 10 µM | – | – | – | – | – | – | – | – | – | –
8 | NC(=O)CCCC(NCc1c2ccccc2nc2ccccc12)C(=O)O (configuration not stated) | 85.7 µM | – | – | – | > 100 µM | > 100 µM | > 100 µM | > 100 | > 100 µM | – | – | – | – | – | – | – | – | – | – | –
9 | CN(C)CCCNc1ccc2ncn3c4ccccc4c(=O)c1c23 | 59.5 µM | 15.1 µM | – | – | 26.5 µM | 26.8 µM | – | 69.7 | 25.9 µM | – | – | – | – | – | – | – | – | – | – | –
10 | CN1CCCCC1CCN1CCCCC1 (configuration not stated) | > 100 µM | > 100 µM | > 100 | > 100 µM | > 100 µM | > 100 µM | > 100 µM | > 100 | > 100 µM | > 100 µM | – | – | – | – | – | – | – | – | – | –
11 | CC12CCC(C(=O)OC1=O)C(C)(C)O2 (configuration not stated) | > 100 µM | > 100 µM | > 100 | > 100 µM | > 100 µM | > 100 µM | > 100 µM | > 100 | > 100 µM | > 100 µM | – | – | – | – | – | – | – | – | – | –
12 | CC1C(O)C2(Oc3cc4c(c5c3[C@@H](CC5O)[C@H]2C)CCC2Cc3nc5c(nc3C[C@@]42C)CC2CCC3C4=C[C@H]6O[C@@]7(O[C@@](C)(CO)C[C@@H]7O)C(C)[C@@]6(O)[C@]4(C)[C@@H](O)CC3[C@]2(C)C5)OC1(C)C (some centres not stated) | > 3.67 µM | 1.02 µM | – | > 3.67 µM | 1.05 µM | 0.611 µM | 0.19 µM | – | 1.23 µM | > 3.67 µM | – | – | – | – | – | – | – | – | – | –
13 | O=NC1C(Cl)C2CC1C1C(Br)C(Br)CC21 (configuration not stated) | > 100 µM | > 100 µM | > 100 | > 100 µM | > 100 µM | > 100 µM | > 100 µM | > 100 | > 100 µM | > 100 µM | – | – | – | – | – | – | – | – | – | –
14 | Cc1c2cc[n+](CCN3CCCCC3)cc2c(C)c2c1[nH]c1ccc(O)cc12 | 46.6 µM and 42 µM | 24.1 µM and 26.1 µM | 28.6 | 72.2 µM and > 100 µM | 55.4 µM and > 71 µM | 35.5 µM and 36.3 µM | 23.6 µM and 16 µM | > 57.6 | 55.1 µM and 32.7 µM | 39.7 µM and 11.5 µM | – | 27.4 | 3.09 | – | 4.34 | 6.26 | 13.5 | – | 1.47 µM and 3.75 µM | 4.75
15 | C/C=C/[P+](c1ccccc1)(c1ccccc1)c1ccccc1 | 6.81 µM | 20.6 µM | > 63.8 | > 100 µM | 24.3 µM | 29.1 µM | 41.6 µM | 20.3 | 41.4 µM | > 45.5 µM | – | – | – | – | – | – | – | – | – | –
16 | COc1ccc(-c2c3c(nc4nc(SCCc5ccccc5)nc(N)c24)CCCC3)cc1OC | – | > 100 µM | > 100 | > 100 µM | > 100 µM | – | > 100 µM | > 100 | – | > 100 µM | – | – | – | – | – | – | – | – | – | –
17 | Cc1cc(NCc2cc(Nc3ccnc4cc(Cl)ccc34)ccc2F)nc(N2CCCC2)n1 | 2.61 µM | – | – | – | 2.95 µM | – | 2.99 µM | 3.61 | – | – | – | – | 1.45 | – | 0.763 | 1.23 | – | 1.94 | – | –
18 | Cc1ccc(S(=O)(=O)NCCSCCNS(=O)(=O)c2ccc(C)cc2)cc1 | > 100 µM | > 100 µM | > 100 | > 100 µM | > 100 µM | – | > 100 µM | > 100 | > 100 µM | > 100 µM | – | – | – | – | – | – | – | – | – | –
19 | CN(C)CCNc1nc(-c2ccc3ccccc3c2)nc2nc[nH]c12 | – | 24.6 µM | 18.4 | 22.9 µM | 24.6 µM | 28.1 µM | 24.2 µM | 19.4 | 16.6 µM | 20.6 µM | – | – | – | – | – | – | – | – | – | –
20 | Cc1sc(Cc2ccccc2)nc1-c1ccc(N)cc1 | 43.4 µM | 40.7 µM | 89.7 | > 100 µM | > 100 µM | 37.7 µM | – | > 100 | – | 44.1 µM | – | – | – | – | – | – | – | – | – | –
21 | COc1ccc([C@@H]2ON(C)[C@H]3CN(C)C(=O)[C@@H]23)cc1 | > 100 µM | > 100 µM | > 100 | > 100 µM | > 100 µM | > 100 µM | – | > 100 | > 100 µM | > 100 µM | – | – | – | – | – | – | – | – | – | –

Reference: PubChem BioAssay (NCI)
